pIC50: −log10 of the molar value.
The compounds below were run against activated ERK2 (Homo sapiens (Human), UniProt P28482) (assay: Activated ERK2 (20 pM) Kinase Assay (AlphaScreen, ERKtide phosphorylation)). Conditions: 0.02 nM ERK2, 400 nM ERKtide peptide, 35 μM ATP, 30 min preincubation.
Chain of activated ERK2 (P28482 whole entry): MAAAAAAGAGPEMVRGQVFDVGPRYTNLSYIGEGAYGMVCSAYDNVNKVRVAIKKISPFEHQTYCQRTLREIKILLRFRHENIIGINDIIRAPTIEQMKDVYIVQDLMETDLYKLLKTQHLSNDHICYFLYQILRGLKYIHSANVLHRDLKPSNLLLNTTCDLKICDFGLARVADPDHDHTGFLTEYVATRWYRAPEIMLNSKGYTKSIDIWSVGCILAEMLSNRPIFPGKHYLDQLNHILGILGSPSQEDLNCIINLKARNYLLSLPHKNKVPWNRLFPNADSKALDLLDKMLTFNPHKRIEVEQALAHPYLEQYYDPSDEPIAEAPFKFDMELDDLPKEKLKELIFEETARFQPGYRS
Type: biochemical
Description: Activated ERK2 (20 pM) Kinase Assay:
The assay was carried out in 20 mM HEPES [pH 7.5], 5 mM MgCl2, 1 mM DTT, 0.01% Tween-20, 0.05% BSA using 0.02 nM ERK2, 400 nM ERKtide peptide and 35 μM ATP (all concentrations are final in the reaction) in a total volume of 10.25 μL. […] Compound dilution series were prepared in 100% DMSO. ERK2 was preincubated with compounds for 30 minutes at ambient temperature. Reaction was initiated by addition of a substrate cocktail of ERKtide peptide and ATP and was allowed to proceed for 4 hours at ambient temperature. Reaction was terminated by addition of 10 μL of a 2× stop buffer consisting of 100 mM Tris-Cl [pH 7.5], 25 mM EDTA, 0.01% Tween 20, 20 μg/mL of AlphaScreen Protein A Acceptor Beads, 20 μg/mL of Streptavidin Donor Beads (PerkinElmer, Waltham, Mass.), and 1:1000 dilution phospho-EGF Receptor (Thr669) antibody (Cat #8808, Cell Signaling Technology, Danvers, Mass.). Terminated reactions were read, after overnight incubation in the dark, on an EnVision Multilabel Plate Reader (PerkinElmer, Waltham, Mass.), with excitation and emission wavelengths set to 680 nm and 570 nm, respectively. IC50 values were determined using a four-parameter fit.
CC(=O)NC[C@@H](NC(=O)c1ccc(-c2nc(C3CCOCC3)cnc2N)cc1F)c1cc(F)cc(Br)c1 [Example 408, (S)-N-(2-acetamido-1-(3-bromo-5-fluorophenyl)ethyl)-4-(3-amino-6-(tetrahydro-2H-pyran-4-yl)pyrazin-2-yl)-2-fluorobenzamide] showed a pIC50 of 10.70.
CNC[C@@H](NC(=O)c1ccc(-c2nc([C@H]3CC[C@H](O)C(F)(F)C3)cnc2N)cc1F)c1cc(F)cc(Br)c1 [Example 458] gave a pIC50 of 10.08.
In the case of C[C@@H](O)[C@@H](NC(=O)c1ccc(-c2nc(C3CCOCC3)cnc2N)cc1F)c1cccc(Cl)c1 [Example 331, 4-(3-amino-6-(tetrahydro-2H-pyran-4-yl)pyrazin-2-yl)-N-((1S,2R)-1-(3-chlorophenyl)-2-hydroxypropyl)-2-fluorobenzamide], the pIC50 was 10.19.
CNC[C@@H](NC(=O)c1ccc(-c2nc([C@H]3CC[C@H](O)CC3)cnc2N)cc1F)c1cc(F)cc(I)c1 [Example 360, 4-(3-amino-6-((1r,4S)-4-hydroxy-cyclohexyl)pyrazin-2-yl)-2-fluoro-N-((S)-1-(3-fluoro-5-iodophenyl)-2-(methylamino)ethyl)benzamide] gave a pIC50 of 11.18.
For N#CC1CCC(c2cnc(N)c(-c3ccc(C(=O)N[C@H](CO)c4cc(F)cc(Br)c4)c(F)c3)n2)CC1 (stereo partly drawn) [Example 451, (S)-4-(3-amino-6-(4-cyanocyclohexyl)pyrazin-2-yl)-N-(1-(3-bromo-5-fluorophenyl)-2-hydroxyethyl)-2-fluorobenzamide], the pIC50 was 10.35.
Work on Cc1nn(C)cc1-c1cnc(N)c(-c2ccc(C(=O)N[C@H](CO)c3cc(F)cc(C(F)F)c3)c(F)c2)c1 [Example 270, (S)-4-(2-amino-5-(1,3-dimethyl-1H-pyrazol-4-yl)pyridin-3-yl)-N-(1-(3-(difluoromethyl)-5-fluorophenyl)-2-hydroxyethyl)-2-fluorobenzamide] yielded a pIC50 of 10.33.
In the case of CNC[C@@H](NC(=O)c1ccc(-c2nc(C3CCOCC3)cnc2N)cc1F)c1cc(F)cc(Cl)c1 [Example 336, (S)-4-(3-amino-6-(tetrahydro-2H-pyran-4-yl)pyrazin-2-yl)-N-(1-(3-chloro-5-fluorophenyl)-2-(methylamino)ethyl)-2-fluorobenzamide], the pIC50 was 10.84.
With Cn1cc(-c2cnc(N)c(-c3ccc(C(=O)N[C@H](CO)c4ccc(F)c(Cl)c4)c(F)c3)c2)cn1 [Example 241, (S)-4-(2-amino-5-(1-methyl-1H-pyrazol-4-yl)pyridin-3-yl)-N-(1-(3-chloro-4-fluorophenyl)-2-hydroxyethyl)-2-fluorobenzamide] the pIC50 was 9.03.
CO[C@H]1CC[C@H](c2cnc(N)c(-c3ccc(C(=O)N[C@H](CN)c4cc(F)cc(I)c4)c(F)c3)n2)CC1 [Example 382, N-((S)-2-amino-1-(3-fluoro-5-iodophenyl)ethyl)-4-(3-amino-6-((1r,4S)-4-methoxy-cyclohexyl)pyrazin-2-yl)-2-fluorobenzamide] showed a pIC50 of 10.97.
Nc1ncc([C@H]2CC[C@H](O)CC2)cc1-c1ccc(C(=O)N[C@H](CO)c2cccc(Cl)c2)c(F)c1 [Example 442, 4-(2-amino-5-((1r,4S)-4-hydroxy-cyclohexyl)pyridin-3-yl)-N-((S)-1-(3-chlorophenyl)-2-hydroxyethyl)-2-fluorobenzamide] gave a pIC50 of 9.47.
Work on Nc1ncc(C2CCCC(O)C2)nc1-c1ccc(C(=O)N[C@H](CO)c2cc(F)cc(Br)c2)c(F)c1 (single isomer, unassigned) [Example 386] yielded a pIC50 of 10.48.
C[C@]1(O)CC[C@@H](c2cnc(N)c(-c3ccc(C(=O)N[C@H](CO)c4cccc(Cl)c4)c(F)c3)n2)CC1 [Example 105, 4-(3-amino-6-((1s,4R)-4-hydroxy-4-methylcyclohexy)pyrazin-2-yl)-N-((S)-1-(3-chlorophenyl)-2-hydroxyethyl)-2-fluorobenzamide] was tested, and the pIC50 was 8.59.
For CNC[C@@H](NC(=O)c1ccc(-c2nc([C@H]3CC[C@H](OC)CC3)cnc2N)cc1F)c1cccc(Br)c1 [Example 375, 4-(3-amino-6-((1r,4S)-4-methoxy-cyclohexyl)pyrazin-2-yl)-N-((S)-1-(3-bromophenyl)-2-(methylamino)ethyl)-2-fluorobenzamide], the pIC50 was 10.40.

From patent US9242996B2 (Novartis AG, priority 2013, dated 2016)
